Test results as given in US20260224521A1, “BIOMOLECULE FOR TREATMENT OF CORNEAL PATHOLOGIES” (Board of Supervisors of Louisiana State University and …, priority 2019, published 2026).
Entries after “also recorded” stand apart in the source; their conditions may differ.

Experiments:
mouse cornea [1] = test: Corneal wound healing 20 h after injury (methylene blue stained wounded area); assay type: in vivo; settings: for corneal wound healing: compared to PEDF+DHA (and RvD6) treatment
Protocol: Studies have shown that PEDF+DHA promotes corneal wound healing in rabbit (20, 21), and in normal and diabetic mice (24, 25) after experimental surgery. We validated the ability of RvD6s (either RvD6 or RvD6si) in stimulating corneal wound healing. The right mouse eyes were injured, and the animals were divided into four groups: vehicle, PEDF+DHA, RvD6, and RvD6si (FIG. 4).
(§1) Mice were anesthetized with a mix of ketamine (200 mg/kg) and xylazine (10 mg/kg) injected intraperitoneally, and one drop of proparacaine hydrochloride solution (0.5%) was applied to the right eye subjected to injury. As previously described (19, 29), the center of the cornea was demarcated with a 2 mm trephine, and the epithelium and the anterior stroma were gently removed under a surgical microscope using a corneal rust ring remover (Algerbrush II; Alger Equipment Co., Lago Vista, TX, USA). One drop of 0.3% of tobramycin ophthalmic solution (Henry Schein, Melville, NY, USA) was applied to the eye to prevent postoperative infection. The same investigator (J.H.) performed all surgeries. Afterward, 10 μl of PEDF (50 ng/ml) plus DHA (50 nM) or DHA-derived lipid mediators were applied topically, as explained in each experimental design.
Mice were euthanized 20 h after injury and treatment, and corneas were stained with 0.5% methylene blue for 20 sec and then washed with PBS for 2 min. Photographs were taken with a dissecting microscope (SMZ 1500; Nikon, Tokyo, Japan) through an attached digital camera (DXM 1200; Nikon). The images corresponding to the wounded area were quantified using Photoshop CC 2014 software (Adobe, San Jose, CA, USA).

mouse cornea [2] = test: Corneal sensitivity measurement (Belmonte non-contact aesthesiometer); assay type: in vivo; settings: for recovery of corneal sensitivity: compared to PEDF+DHA (and RvD6) treatment; for corneal sensitivity: vs vehicle
Protocol: Corneal sensitivity was evaluated at days 3, 6, 9 and 12 after corneal injury and treatment (FIG. 4). A new methodology to measure the sensation in mouse cornea was introduced using the Belmonte non-contact aesthesiometer. […] It is important to note that this range of normal corneal sensitivity is critical to evaluate corneal sensation since the Belmonte non-contact aesthesiometer working flow rate is from 20 to 200 ml/min. The range of normal corneal sensitivity from […] in the mouse was regarded as successful recovery after injury and treatment, and it was used to normalize the measurements.
as §1
The non-contact corneal aesthesiometer has been described as a more reliable method than the standard Cochet-Bonnet aesthesiometer to determine the corneal sensation threshold (54). Therefore, for corneal sensation measurement, the Belmonte non-contact corneal aesthesiometer (55) was used with some modification. Briefly, one researcher held the mouse and kept the air output needle at a distance of 3 mm from the cornea. Another researcher controlled the air flow rate. The measurements started at an air flow rate of 80 ml per minute and then increased gradually by ten units until the mouse started blinking. When the mouse blinked, the air flow rate was recorded as the final corneal sensitivity index.

corneal nerves = test: Corneal nerve analysis (PGP9.5 and SP whole-mount nerve density); assay type: in vivo, mouse
From the text: PEDF+DHA stimulates corneal nerve regeneration in injury animal models (20-25). It was important to confirm the biological activity of RvD6si as a lipid mediator underlying the action of PEDF+DHA. To validate this, mice were injured and treated (as described in FIG. 4). Isolated corneas were stained with PGP 9.5, a pan-neuronal marker, and with SP neuropeptide antibodies. The density of non-injured corneal nerves positive to PGP 9.5 and SP, respectively, was used to normalize the values (FIG. 5). Substance P is a main neuropeptide in mammalian corneas (26-28).
as §1
Twelve days after injury and treatment, mice were euthanized, and the eyes enucleated and fixed with Zamboni's fixative (American Master Tech Scientific, Lodi, CA, USA) for 45 min at room temperature. The corneas were then excised and fixed for an additional 15 min, followed by 3 washes with PBS. To block nonspecific binding, corneas were incubated with 10% normal goat serum plus 0.5% Triton X-100 in PBS for 1 h at room temperature. Afterward, corneas were incubated with the primary antibodies, rabbit monoclonal anti-PGP9.5 (1:500), (ab108986; Abcam, Cambridge, MA, USA), and rat monoclonal anti-substance-P (SP; 1:100) (sc-21715; Santa Cruz Biotechnology, Dallas, TX, USA) for 24 h at room temperature with constant shaking. After being washed with PBS, the corneas were incubated with the corresponding secondary antibodies goat anti-rabbit Alexa-Fluor 488 (1:1000) and goat anti-rat Alexa-Fluor 488 (1:1000) (Thermo Fisher Scientific, Waltham, MA, USA) for 24 h at 4° C. Four radial cuts were performed on each cornea that was flatly mounted on a slide with the endothelium side up and examined with a fluorescent microscope (Deconvolution microscope DP80; Olympus, Tokyo, Japan). The images were merged together to build the entire view of the corneal nerve network. The corneal nerve density was measured using Photoshop CC 2014 (Adobe) as previously described (26, 29).

[3] = test system: trigeminal ganglion (TG) gene expression; test: Trigeminal ganglion RNA sequencing after corneal injury and treatment; assay type: in vivo, mouse; settings: RNA-seq, 12 days after corneal injury and topical treatment, vs vehicle
Protocol: Because corneal sensory nerves originate in TG neurons, we wanted to validate whether corneal injury could be sensed in the TG and t, in turn, would elicit a gene expression response. Thus, TG were harvested 12 days after injury and treatment with RvD6si or RvD6 or vehicle treatment used as control (FIG. 4) and then RNA-seq analysis was performed. […] The box plots depict two activated genes by RvD6si in this class: C9orf72 and Gpm6a (FIG. 6). We also detected specific genes related to neuropeptides and ion channel receptors in the cornea that are stimulated by the addition of PEDF+DHA (19, 21, 24) (FIG. 6D). The RNA-seq established that RvD6 or RvD6si reduced gene expression of two major neuropeptides, tachykinin precursor 1 (Tac1) that encodes Substance P (SP) and calcitonin-related polypeptide beta (Calcb). It is important to note that these neuropeptides, especially Calcb, are major pain-induced mediators in migraine and other primary headaches (30).
TG corresponding to the injury eye side (n=5) were harvested and kept in RNAlater solution (Thermo Fisher Scientific) until homogenized on ice using a Dounce homogenizer. Total mRNA was extracted using an RNeasy mini kit (Qiagen, Germantown, MD, USA) as described by the manufacturer. Purity and concentration of RNA were determined with a NanoDrop ND-1000 spectrophotometer (Thermo Fisher Scientific), and the samples were stored at −80° C. until used. RNA sequencing was performed using the adapted Smart-seq2 protocol (56). Briefly, one ng of total RNA was reverse transcribed with the Oligo-dT30VN and template-switching oligo (TSO) primers. The total cDNAs were amplified using ISPCR primer, and the library was made using the Nextera XT DNA library preparation kit (Illumina, San Diego, CA, USA). The libraries were pooled using the same molarity and sequenced using the NextSeq 500/550 High Output Kit v2 (75 cycles, Illumina). After demultiplexing, RNA-seq data were aligned to the GENCODE GRCm38 mouse primary genome assembly (Release M22, gencodegenes.org/mouse/) using the RSubread package v1.34.6 for R v3.6.1 (57). The outputted BAM files for sequencing data alignment were counted using featureCounts function (Subread v1.6.5 in Ubuntu LTS 16.4 operating system) (58). Next, the raw count data were subjected to differential gene expression analysis using DESeq2 package for R (59). The adjusted p-values were regarded as the false discover rate (FDR).

mouse cornea [4] = test: Mouse corneal epithelium removal inside 2 mm diameter central area; assay type: in vivo; settings: topical eye drops, 3× daily for 12 days; 2020 (40)
Protocol: as §1

SMILES: CC/C=C\C[C@@H](O)/C=C/C=C\C/C=C\C/C=C\C=C\[C@H](O)CCC(=O)O (single isomer, unassigned) [RvD6si]
- corneal wound healing (wound closure) (mouse cornea [1]; 20 h after injury and topical treatment, compared to vehicle): greatest increase
- corneal wound healing (mouse cornea [1]): more potently
- corneal wound healing (mouse cornea [1]; listed as RvD6i): accelerated
- recovery of corneal sensitivity (mouse cornea [2]): more potently
- recovery of corneal sensitivity (mouse cornea [2]; listed as RvD6i): accelerated; also recorded: sooner
- corneal sensitivity (mouse cornea [2]; day 3 after injury and treatment): faster recovery; also recorded: significantly higher
- corneal sensitivity (mouse cornea [2]; day 6 after injury and treatment): faster recovery; also recorded: significantly higher
- corneal sensitivity (mouse cornea [2]; day 9 after injury and treatment): significantly higher
- total corneal nerve density, differences between RvD6si, RvD6, and PEDF+DHA (corneal nerves; 12 days after injury and treatment): no significant differences
- total corneal nerve density (PGP 9.5) (corneal nerves; 12 days after injury and treatment, % of the normal (uninjured) cornea): 62.6±4.2%
- density of SP-positive nerves (corneal nerves; 12 days after injury, compared to the vehicle-treated group): higher
- C9orf72 gene expression in TG [3]: activated; also recorded: strong activation
- Calcb gene expression in TG [3]: reduced; also recorded: decreased
- Gpm6a gene expression in TG [3]: activated; also recorded: strong activation
- Nrp1 gene expression in TG [3]: selectively enhanced; also recorded: selective increase
- Rictor gene expression in TG [3]: strong induction; also recorded: potently and selectively induces
- Tac1 gene expression in TG [3]: reduced; also recorded: decreased
- Trpm8 gene expression in TG [3]: selectively enhanced; also recorded: increased expression
- C9orf72 gene expression in TG ([3]; listed as RvD6i): induces
- Calcb gene expression in TG ([3]; listed as RvD6i): decreased; also recorded: down-regulated
- Gpm6a gene expression in TG ([3]; listed as RvD6i): induces
- Rictor gene expression in TG ([3]; listed as RvD6i): strong inducer; also recorded: up-regulated
- Tac1 gene expression in TG ([3]; listed as RvD6i): decreased; also recorded: down-regulated
- Trpm8 gene expression in TG ([3]; listed as RvD6i): increased; also recorded: up-regulated
- corneal wound healing, sensitivity and nerve regeneration (mouse cornea [4]): Increased corneal wound healing, sensitivity
